Test results taken from patent US11168073B2, “3,3-difluoroallylamines or salts thereof and pharmaceutical compositions comprising the same” (YUHAN CORPORATION, priority 2018, dated 2021).
Structures can show the parent of a compound that is named as a salt. Where two headings read alike, the source gives them in different places.

What was measured:
Type in all cases: biochemical
[1] = target: T1, recombinant human VAP-1 (Homo sapiens, UniProt Q16853); assay: Activity evaluation on recombinant human VAP-1 (Amplex Red/HRP-coupled hydrogen peroxide assay, benzylamine substrate); conditions: read-out: Inhibitory Activity (IC50, nM) human VAP-1
T1 construct: purchased R&D systems
T1 sequence (Q16853 1-763): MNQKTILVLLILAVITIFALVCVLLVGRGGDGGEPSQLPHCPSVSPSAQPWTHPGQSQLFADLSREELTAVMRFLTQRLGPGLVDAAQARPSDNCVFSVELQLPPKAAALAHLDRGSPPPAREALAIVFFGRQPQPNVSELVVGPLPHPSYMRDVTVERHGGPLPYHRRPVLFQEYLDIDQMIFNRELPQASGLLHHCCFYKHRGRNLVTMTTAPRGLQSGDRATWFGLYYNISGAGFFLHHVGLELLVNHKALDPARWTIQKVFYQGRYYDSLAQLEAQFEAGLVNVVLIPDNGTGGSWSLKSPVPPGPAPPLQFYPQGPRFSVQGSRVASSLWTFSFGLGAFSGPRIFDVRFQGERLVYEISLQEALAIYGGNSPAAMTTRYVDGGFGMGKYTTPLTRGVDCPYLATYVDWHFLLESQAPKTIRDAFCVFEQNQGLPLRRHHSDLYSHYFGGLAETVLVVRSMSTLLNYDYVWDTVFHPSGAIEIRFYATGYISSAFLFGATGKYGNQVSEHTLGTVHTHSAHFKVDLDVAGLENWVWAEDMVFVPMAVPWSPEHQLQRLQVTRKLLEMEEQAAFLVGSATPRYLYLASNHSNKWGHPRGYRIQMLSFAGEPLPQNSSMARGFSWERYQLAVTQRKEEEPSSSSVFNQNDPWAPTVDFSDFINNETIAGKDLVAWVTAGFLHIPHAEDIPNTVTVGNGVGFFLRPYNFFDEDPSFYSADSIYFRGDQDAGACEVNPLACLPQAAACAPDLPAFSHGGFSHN
Outline: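 Recombinant human VAP-1 in 50 mM sodium phosphate pH 7.4 preincubated 30 min at 37 °C with compound (8-point 1:3 series, <1% DMSO), then 1 mM benzylamine, 200 uM Amplex Red, 1 U/mL HRP added. H2O2-derived resorufin fluorescence (ex 544/em 590) followed 1–2 h; IC50 from four-parameter fit of rate inhibition.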

[2] = target: T2, recombinant human MAO-B (monoamine oxidase-B) (Homo sapiens, UniProt P27338); assay: Activity evaluation on recombinant human MAO-B (Amplex Red/HRP-coupled assay, 1 mM benzylamine substrate); conditions: read-out: Inhibitory Activity (IC50, nM) MAO-B
T2 construct: purchased Sigma-Aldrich
T2 sequence (P27338 1-520): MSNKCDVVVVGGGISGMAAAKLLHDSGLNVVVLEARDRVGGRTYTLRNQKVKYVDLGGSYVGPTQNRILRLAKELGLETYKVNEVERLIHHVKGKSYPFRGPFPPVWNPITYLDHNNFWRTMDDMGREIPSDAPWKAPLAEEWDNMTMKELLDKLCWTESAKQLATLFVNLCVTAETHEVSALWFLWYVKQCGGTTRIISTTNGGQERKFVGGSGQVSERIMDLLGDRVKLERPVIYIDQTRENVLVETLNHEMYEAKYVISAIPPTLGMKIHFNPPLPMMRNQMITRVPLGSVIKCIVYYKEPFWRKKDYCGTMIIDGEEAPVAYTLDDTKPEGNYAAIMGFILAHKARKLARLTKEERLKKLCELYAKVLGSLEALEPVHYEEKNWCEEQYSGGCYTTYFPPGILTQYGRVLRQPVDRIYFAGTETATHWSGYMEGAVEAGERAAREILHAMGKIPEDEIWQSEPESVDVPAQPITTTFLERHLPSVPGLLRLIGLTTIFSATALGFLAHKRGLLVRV
Outline: (§1)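 Enzyme activity was measured as fluorescence rate (ex 544, em 590 nm) from resorufin formed by HRP-coupled H2O2 oxidation of 200 uM Amplex Red. Compounds were first incubated 30 min at 37 °C with enzyme at pH 7.4; substrates were 0.5 mM tyramine (MAO-A), 1 mM benzylamine (MAO-B) and 1 mM putrescine (DAO).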

[3] = target: T3, recombinant human MAO-A (monoamine oxidase-A) (Homo sapiens, UniProt P21397); assay: Activity evaluation on recombinant human MAO-A (Amplex Red/HRP-coupled assay, 0.5 mM tyramine substrate); conditions: read-out: Inhibitory Activity (IC50, nM) MAO-A
T3 construct: purchased Sigma-Aldrich
T3 sequence (P21397 1-527): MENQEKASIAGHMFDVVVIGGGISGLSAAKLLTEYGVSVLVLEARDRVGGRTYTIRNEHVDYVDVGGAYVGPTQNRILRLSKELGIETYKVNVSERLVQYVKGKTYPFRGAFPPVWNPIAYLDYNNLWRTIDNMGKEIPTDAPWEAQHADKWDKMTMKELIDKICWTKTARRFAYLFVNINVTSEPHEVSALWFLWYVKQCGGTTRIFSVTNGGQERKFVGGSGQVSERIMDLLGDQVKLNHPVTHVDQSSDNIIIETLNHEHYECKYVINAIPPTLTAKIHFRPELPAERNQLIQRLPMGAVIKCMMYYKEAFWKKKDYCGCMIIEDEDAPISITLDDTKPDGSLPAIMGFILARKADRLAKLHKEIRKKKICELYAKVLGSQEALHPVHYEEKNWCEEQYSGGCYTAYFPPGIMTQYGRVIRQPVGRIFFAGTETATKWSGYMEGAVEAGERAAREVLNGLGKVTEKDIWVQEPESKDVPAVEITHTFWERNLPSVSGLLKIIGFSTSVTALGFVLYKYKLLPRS
Outline: as §1

[4] = target: T4, recombinant human DAO (diamine oxidase) (Homo sapiens, UniProt P19801); assay: Activity evaluation on recombinant human DAO (Amplex Red/HRP-coupled assay, 1 mM putrescine substrate); conditions: read-out: Inhibitory Activity (IC50, nM) DAO
T4 construct: purchased R&D systems
T4 sequence (P19801 20-751): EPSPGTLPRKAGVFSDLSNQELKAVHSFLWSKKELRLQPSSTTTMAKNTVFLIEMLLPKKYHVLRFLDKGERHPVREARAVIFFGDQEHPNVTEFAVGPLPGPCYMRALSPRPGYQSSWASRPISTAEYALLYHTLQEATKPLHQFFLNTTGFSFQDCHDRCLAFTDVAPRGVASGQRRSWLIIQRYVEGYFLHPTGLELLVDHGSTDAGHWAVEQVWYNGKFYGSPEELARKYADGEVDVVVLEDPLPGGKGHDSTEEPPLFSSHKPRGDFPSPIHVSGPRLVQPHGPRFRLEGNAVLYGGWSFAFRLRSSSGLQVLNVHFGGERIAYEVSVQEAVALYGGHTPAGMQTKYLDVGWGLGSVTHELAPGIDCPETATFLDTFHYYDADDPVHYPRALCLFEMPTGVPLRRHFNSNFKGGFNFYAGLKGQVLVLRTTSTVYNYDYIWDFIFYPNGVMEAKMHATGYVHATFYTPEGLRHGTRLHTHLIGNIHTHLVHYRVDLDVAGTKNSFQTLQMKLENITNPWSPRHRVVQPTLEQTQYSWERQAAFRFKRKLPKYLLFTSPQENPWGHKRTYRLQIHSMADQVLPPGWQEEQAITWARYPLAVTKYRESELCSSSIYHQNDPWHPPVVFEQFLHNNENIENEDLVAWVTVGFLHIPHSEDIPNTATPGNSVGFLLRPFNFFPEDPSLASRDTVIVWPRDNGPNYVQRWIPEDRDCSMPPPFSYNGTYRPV
Outline: as §1

[5] = recombinant human VAP-1, benzylamine substrate
[6] = recombinant human VAP-1, 30 min preincubation at 37° C., 1 mM benzylamine

Compound	IC50 [1, 5]	IC50 ([2]; 1 mM benzylamine substrate)	IC50 ([3]; 0.5 mM tyramine substrate)	IC50 ([4]; 1 mM putrescine substrate)	IC50 [1, 6]	IC50 ([2]; 1 mM benzylamine)	IC50 ([3]; 0.5 mM tyramine)	IC50 ([4]; 1 mM putrescine)
CCn1cc(-c2ccc(-c3csc(Cn4cnn(CC(CN)=C(F)F)c4=O)c3)cc2)cn1 [Example 288, 2-[2-(aminomethyl)-3,3-difluoro-allyl]-4-[[4-[4-(1-ethylpyrazol-4-yl)phenyl]-2-thienyl]methyl]-1,2,4-triazol-3-one Trifluoroacetate]	2.6 nM	3230 nM	2910 nM	3780 nM	–	–	–	–
NCC(Cn1ncn(-c2ccc(Br)c(F)c2)c1=O)=C(F)F [Example 4, 2-[2-(aminomethyl)-3,3-difluoro-allyl]-4-(4-bromo-3-fluoro-phenyl)-1,2,4-triazol-3-one Trifluoroacetate]	–	–	–	–	4.2 nM	2300 nM	> 100000 nM	58000 nM
Cc1c(-c2ccc(N3CCNCC3)cc2)cccc1-n1cnn(CC(CN)=C(F)F)c1=O [Example 254, 2-[2-(aminomethyl)-3,3-difluoro-allyl]-4-[2-methyl-3-(4-piperazin-1-ylphenyl)phenyl]-1,2,4-triazol-3-one Ditrifluoroacetate]	8 nM	> 100000 nM	> 100000 nM	> 100000 nM	–	–	–	–
CC(=O)N1CCN(c2ccc(-c3csc(Cn4cnn(CC(CN)=C(F)F)c4=O)c3)cc2)CC1 [Example 188, 4-[[4-[4-(4-acetylpiperazin-1-yl)phenyl]-2-thienyl]methyl]-2-[2-(aminomethyl)-3,3-difluoro-allyl]-1,2,4-triazol-3-one Trifluoroacetate]	3.4 nM	> 100000 nM	> 100000 nM	7400 nM	–	–	–	–
NCC(Cn1ncn(Cc2ccc(-c3ccn4ncnc4c3)s2)c1=O)=C(F)F [Example 128, 2-[2-(aminomethyl)-3,3-difluoro-allyl]-4-[[5-([1,2,4]triazolo[1,5-a]pyridin-7-yl)-2-thienyl]methyl]-1,2,4-triazol-3-one Trifluoroacetate]	–	–	–	–	0.7 nM	> 100000 nM	> 100000 nM	97000 nM
Cc1cc(-c2cccc(Cn3cnn(CC(CN)=C(F)F)c3=O)c2)cc2c1NC(=O)CC2 [Example 275, 6-[3-[[1-[2-(aminomethyl)-3,3-difluoro-allyl]-5-oxo-1,2,4-triazol-4-yl]methyl]phenyl]-8-methyl-3,4-dihydro-1H-quinolin-2-one Trifluoroacetate]	0.9 nM	25400 nM	> 100000 nM	5160 nM	–	–	–	–
CN(C)c1ccc(-c2cccc(-n3cnn(CC(CN)=C(F)F)c3=O)n2)cn1 [Example 49, 2-[2-(aminomethyl)-3,3-difluoro-allyl]-4-[6-[6-(dimethylamino)-3-pyridyl]-2-pyridyl]-1,2,4-triazol-3-one Trifluoroacetate]	–	–	–	–	1.6 nM	> 100000 nM	> 100000 nM	490 nM
Cc1c(-c2ccc(N(C)C)nc2)cccc1-n1cnn(CC(CN)=C(F)F)c1=O [Example 256, 2-[2-(aminomethyl)-3,3-difluoro-allyl]-4-[3-[6-(dimethylamino)-3-pyridyl]-2-methyl-phenyl]-1,2,4-triazol-3-one Trifluoroacetate]	2.5 nM	> 100000 nM	> 100000 nM	> 100000 nM	–	–	–	–
Cc1cc(-c2cccc(S(C)(=O)=O)c2)cnc1-n1cnn(CC(CN)=C(F)F)c1=O [Example 234, 2-[2-(aminomethyl)-3,3-difluoro-allyl]-4-[3-methyl-5-(3-methylsulfonylphenyl)-2-pyridyl]-1,2,4-triazol-3-one Trifluoroacetate]	0.4 nM	1800 nM	> 100000 nM	7500 nM	–	–	–	–
NCC(Cn1ncn(Cc2ccc(-c3cnn(S(=O)(=O)C4CC4)c3)s2)c1=O)=C(F)F [Example 294, 2-[2-(aminomethyl)-3,3-difluoro-allyl]-4-[[5-(1-cyclopropylsulfonylpyrazol-4-yl)-2-thienyl]methyl]-1,2,4-triazol-3-one Trifluoroacetate]	2.9 nM	> 100000 nM	> 100000 nM	5380 nM	–	–	–	–
NCC(Cn1ncn(Cc2ccc(-c3ccc4c(c3)NC(=O)OC4)s2)c1=O)=C(F)F [Example 142, 7-[5-[[1-[2-(aminomethyl)-3,3-difluoro-allyl]-5-oxo-1,2,4-triazol-4-yl]methyl]-2-thienyl]-1,4-dihydro-3,1-benzoxazin-2-one Trifluoroacetate]	–	–	–	–	0.2 nM	32000 nM	> 100000 nM	16000 nM
NCC(Cn1ncn(-c2ccnc(Br)c2)c1=O)=C(F)F [Example 10, 2-[2-(aminomethyl)-3,3-difluoro-allyl]-4-(2-bromo-4-pyridyl)-1,2,4-triazol-3-one Trifluoroacetate]	–	–	–	–	7.7 nM	> 100000 nM	> 100000 nM	1200 nM
NCC(Cn1ncn(Cc2cc3ccc(-c4ccc5c(c4)OCO5)cc3s2)c1=O)=C(F)F [Example 201, 2-[2-(aminomethyl)-3,3-difluoro-allyl]-4-[[6-(1,3-benzodioxol-5-yl)benzothiophen-2-yl]methyl]-1,2,4-triazol-3-one Trifluoroacetate]	2.8 nM	2000 nM	90800 nM	27000 nM	–	–	–	–
